Source: patent US20210267203A1, “PESTICIDALLY ACTIVE AZOLE-AMIDE COMPOUNDS” (SYNGENTA PARTICIPATIONS AG, priority 2018, published 2021)

Legend:
Format in all cases: in vivo
[1] = tested on: Plutella xylostella (Diamond Back Moth); assay: Example B5: Plutella xylostella (diamond back moth), artificial diet, 24-well, eggs; settings: 192 h, application rate 200 ppm, 8 days after infestation, read-out: effect in at least one of the two categories (mortality or growth inhibition)
Method in brief: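 Artificial diet in 24-well plates treated with aqueous dilutions of 10,000 ppm DMSO stocks, dried, then infested with Plutella eggs. Mortality and growth inhibition scored against untreated samples 8 days after infestation; activity rated at 200 ppm application rate.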

[2] = tested on: Spodoptera littoralis (Egyptian Cotton Leaf Worm); assay: Example B9: Spodoptera littoralis (Egyptian cotton leaf worm), cotton leaf discs sprayed, L1 larvae; settings: foliar, 72 h, application rate 200 ppm, 3 days after infestation
Method in brief: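 Leaf discs on agar sprayed with aqueous dilutions from 10,000 ppm DMSO stock, dried, then infested with five L1 larvae. Mortality, anti-feeding and growth inhibition scored against untreated samples 3 days after infestation; control counted when any category exceeds untreated.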

[3] = tested on: Diabrotica Balteata (Corn Root Worm); assay: Example B1: Diabrotica balteata (corn root worm), maize sprouts sprayed, L2 larvae; settings: 96 h, application rate 200 ppm, 4 days after infestation, read-out: effect in at least one of the two categories (mortality or growth inhibition)
Method in brief: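 Maize sprouts on agar sprayed with aqueous dilutions of 10,000 ppm DMSO stocks, dried, then infested with 6–10 L2 larvae per well. Mortality and growth inhibition scored against untreated samples 4 days after infestation; rates of 200 ppm.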

[4] = tested on: Chilo suppressalis (Striped Rice Stemborer); assay: Example B4: Chilo suppressalis (striped rice stemborer), artificial diet, L2 larvae; settings: 144 h, application rate 200 ppm, 6 days after infestation
Method in brief: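 L2 larvae (6-8 per well) placed on artificial diet treated with aqueous test solutions prepared from 10,000 ppm DMSO stocks, after drying. Mortality, anti-feeding and growth inhibition scored against untreated samples 6 days after infestation; control means at least one category exceeds untreated.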

[5] = tested on: Myzus persicae (Green Peach Aphid); assay: Example B7: Myzus persicae (green peach aphid), systemic activity; settings: 144 h, test rate 24 ppm, pea seedling roots in test solution, 6 days
Method: Example B7: Myzus persicae (Green Peach Aphid), Systemic Activity
Roots of pea seedlings infested with an aphid population of mixed ages were placed directly into aqueous test solutions prepared from 10,000 DMSO stock solutions. The samples were assessed for mortality 6 days after placing seedlings into test solutions.

[6] = tested on: Euschistus heros (Neotropical Brown Stink Bug); assay: Example B2: Euschistus heros (neotropical brown stink bug), soybean leaves sprayed, N2 nymphs; settings: 120 h, application rate 200 ppm, 5 days after infestation, read-out: effect in at least one of the two categories (mortality or growth inhibition)
Method in brief: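 Soybean leaves on agar sprayed with aqueous test solutions made from 10,000 ppm DMSO stocks, dried, then infested with N2 nymphs. Mortality and growth inhibition scored versus untreated samples 5 days after infestation; activity threshold at 200 ppm.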

[7] = tested on: Myzus persicae (Green Peach Aphid); assay: Example B6: Myzus persicae (green peach aphid), feeding/contact activity; settings: 144 h, application rate 200 ppm, 6 days after infestation
Method: Example B6: Myzus persicae (Green Peach Aphid):Feeding/Contact Activity
Sunflower leaf discs were placed onto agar in a 24-well microtiter plate and sprayed with aqueous test solutions prepared from 10,000 ppm DMSO stock solutions. After drying, the leaf discs were infested with an aphid population of mixed ages. The samples were assessed for mortality 6 days after infestation.

[8] = tested on: Myzus persicae (Green Peach Aphid); assay: Example B8: Myzus persicae (green peach aphid), intrinsic activity; settings: 120 h, test rate 12 ppm, sucrose solution, 24-well, 5 days after infestation
Method in brief: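 Compounds diluted from 10,000 ppm DMSO stock were mixed with sucrose solution under stretched Parafilm in a sachet feeding setup, with aphid-infested pea seedlings placed on the membrane. Mortality was scored 5 days after infestation.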

[9] = tested on: Frankliniella occidentalis (Western Flower Thrips); assay: Example B3: Frankliniella occidentalis (western flower thrips), feeding/contact activity; settings: 168 h, application rate 200 ppm, mixed ages, 7 days after infestation
Method: Example B3: Frankliniella occidentalis (Western Flower Thrips):Feeding/Contact Activity
Sunflower leaf discs were placed on agar in 24-well microtiter plates and sprayed with aqueous test solutions prepared from 10,000 DMSO stock solutions. After drying the leaf discs were infested with a Frankliniella population of mixed ages. The samples were assessed for mortality 7 days after infestation.

[10] = tested on: Plutella xylostella (Diamondback Moth); assay: Example B14: activity against Plutella xylostella (diamondback moth), 96-well artificial diet; settings: 216 h, application rate 500 ppm, 9 days after infestation
Method in brief: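 Diet in 96-well plates was treated with aqueous dilutions of 10,000 ppm DMSO stocks, dried, and infested with 30 eggs per well via a netted lid; hatching L1 larvae fed on the diet. Mortality scored 9 days after infestation.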

[11] = tested on: Spodoptera littoralis (Egyptian Cotton Leaf Worm); assay: Example B10: Spodoptera littoralis (Egyptian cotton leaf worm), uptake by lettuce roots from agar, eggs; settings: 144 h, test rate 12.5 ppm, lettuce root uptake, 6 days after infestation, read-out: effect in at least one of the three categories (mortality, anti-feeding, or growth inhibition)
Excerpt: Example B10: Spodoptera littoralis (Egyptian Cotton Leaf Worm)
Test compounds were applied by pipette from 10,000 ppm DMSO stock solutions into 24-well plates and mixed with agar. Lettuce seeds were placed onto the agar and the multi well plate was closed by another plate which contained also agar. After 7 days the compound was absorbed by the roots and the lettuce grew into the lid plate. The lettuce leaves were then cut off into the lid plate. Spodoptera eggs were pipetted through a plastic stencil onto a humid gel blotting paper and the lid plate was closed with it. The samples were assessed for mortality, anti-feedant effect and growth inhibition in comparison to untreated samples 6 days after infestation.
The following compounds gave an effect of at least 80% in at least one of the three categories (mortality, anti-feeding, or growth inhibition) at a test rate of 12.5 ppm: […]

[12] = tested on: Thrips tabaci (Onion Thrips); assay: Example B12: Thrips tabaci (onion thrips), feeding/contact activity; settings: 144 h, application rate 200 ppm, mixed ages, 6 days after infestation
Method: Example B12: Thrips tabaci (Onion Thrips) Feeding/Contact Activity
Sunflower leaf discs were placed on agar in 24-well microtiter plates and sprayed with aqueous test solutions prepared from 10,000 ppm DMSO stock solutions. After drying the leaf discs were infested with a thrips population of mixed ages. The samples were assessed for mortality 6 days after infestation.

[13] = tested on: Myzus persicae (Green Peach Aphid); assay: Example B13: activity against Myzus persicae (green peach aphid), 96-well sucrose solution; settings: 120 h, application rate 50 ppm, 5 days after infestation
Method in brief: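 Compounds, from 10,000 ppm DMSO stocks, mixed into sucrose solution in wells under stretched Parafilm, with aphids placed on the membrane in an inverted feeding setup. Mortality scored 5 days after infestation.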

Cc1nc(C(C)NC(=O)c2cc(C(F)(F)F)cc(C(C)(C)C#N)c2)n(-c2ncccn2)n1 (stereo not drawn) [P82, 3-(1-cyano-1-methyl-ethyl)-N-[1-(5-methyl-2-pyrimidin-2-yl-1,2,4-triazol-3-yl)ethyl]-5-(trifluoromethyl)benzamide]
≥ 80%: percent effect (mortality or growth inhibition) at 200 ppm [1] | percent control (mortality, anti-feedant effect or growth inhibition) at 200 ppm [2] | percent effect (mortality or growth inhibition) at 200 ppm [3] | percent control (mortality, anti-feedant effect or growth inhibition) at 200 ppm [4] | mortality at 24 ppm [5] | percent effect (mortality or growth inhibition) at 200 ppm [6] | mortality at 200 ppm [7] | mortality at 12 ppm [8]

C[C@H](NC(=O)c1cc(C2CC2)cc(C(F)(F)F)c1)c1ncnn1-c1ncccn1 [P72, 3-cyclopropyl-N-[(1S)-1-(2-pyrimidin-2-yl-1,2,4-triazol-3-yl)ethyl]-5-(trifluoromethyl)benzamide]
≥ 80%: percent effect (mortality or growth inhibition) at 200 ppm [1] | percent control (mortality, anti-feedant effect or growth inhibition) at 200 ppm [2] | percent effect (mortality or growth inhibition) at 200 ppm [3] | percent control (mortality, anti-feedant effect or growth inhibition) at 200 ppm [4] | percent effect (mortality or growth inhibition) at 200 ppm [6] | mortality at 200 ppm [7] | mortality at 200 ppm [9] | mortality at 12 ppm [8]

CC(c1ncnn1-c1ncccn1)N(CC1CC1)C(=O)c1cc([S+]([O-])C(F)(F)F)cc(C(F)(F)F)c1 (stereo not drawn) [P26, N-(cyclopropylmethyl)-N-[1-(2-pyrimidin-2-yl-1,2,4-triazol-3-yl)ethyl]-3-(trifluoromethyl)-5-(trifluoromethylsulfinyl)benzamide]
≥ 80%: percent effect (mortality or growth inhibition) at 200 ppm [1] | percent control (mortality, anti-feedant effect or growth inhibition) at 200 ppm [2] | percent effect (mortality or growth inhibition) at 200 ppm [3] | mortality at 500 ppm [10] | percent control (mortality, anti-feedant effect or growth inhibition) at 200 ppm [4] | mortality at 24 ppm [5] | percent effect (mortality or growth inhibition) at 200 ppm [6] | percent effect (mortality, anti-feeding or growth inhibition) at 12.5 ppm [11] | mortality at 200 ppm [7] | mortality at 12 ppm [8] | mortality at 200 ppm [12] | mortality at 50 ppm [13]

Cc1nc(C(C)NC(=O)c2cc(C(F)(F)F)cc(C3(C#N)CC3)c2)n(-c2ncc(Br)cn2)n1 (stereo not drawn) [P78, N-[1-[2-(5-bromopyrimidin-2-yl)-5-methyl-1,2,4-triazol-3-yl]ethyl]-3-(1-cyanocyclopropyl)-5-(trifluoromethyl)benzamide]
≥ 80%: percent effect (mortality or growth inhibition) at 200 ppm [1] | percent control (mortality, anti-feedant effect or growth inhibition) at 200 ppm [2] | percent effect (mortality or growth inhibition) at 200 ppm [3] | percent control (mortality, anti-feedant effect or growth inhibition) at 200 ppm [4] | percent effect (mortality or growth inhibition) at 200 ppm [6] | mortality at 200 ppm [9] | mortality at 12 ppm [8]

CC(c1ncnn1-c1ncccn1)N(CC1CC1)C(=O)c1cc(C(F)(F)F)cc(C(C)(C)C#N)c1 (stereo not drawn) [P35, 3-(1-cyano-1-methyl-ethyl)-N-(cyclopropylmethyl)-N-[1-(2-pyrimidin-2-yl-1,2,4-triazol-3-yl)ethyl]-5-(trifluoromethyl)benzamide]
≥ 80%: percent effect (mortality or growth inhibition) at 200 ppm [1] | percent control (mortality, anti-feedant effect or growth inhibition) at 200 ppm [2] | percent effect (mortality or growth inhibition) at 200 ppm [3] | mortality at 500 ppm [10] | mortality at 24 ppm [5] | percent effect (mortality or growth inhibition) at 200 ppm [6] | mortality at 12 ppm [8] | mortality at 200 ppm [12] | mortality at 50 ppm [13]

CC(c1ncnn1-c1ncccn1)N(CC1CC1)C(=O)c1cc(C(F)(F)F)cc(S(=O)(=O)C(F)(F)F)c1 (stereo not drawn) [P89, N-(cyclopropylmethyl)-N-[1-(2-pyrimidin-2-yl-1,2,4-triazol-3-yl)ethyl]-3-(trifluoromethyl)-5-(trifluoromethylsulfonyl)benzamide]
≥ 80%: percent effect (mortality or growth inhibition) at 200 ppm [1] | percent control (mortality, anti-feedant effect or growth inhibition) at 200 ppm [2] | percent effect (mortality or growth inhibition) at 200 ppm [3] | mortality at 500 ppm [10] | percent control (mortality, anti-feedant effect or growth inhibition) at 200 ppm [4] | mortality at 24 ppm [5] | percent effect (mortality or growth inhibition) at 200 ppm [6] | percent effect (mortality, anti-feeding or growth inhibition) at 12.5 ppm [11] | mortality at 200 ppm [7] | mortality at 12 ppm [8] | mortality at 200 ppm [12] | mortality at 50 ppm [13]

CC(c1ncnn1-c1ncccn1)N(CC1CC1)C(=O)c1cc(C(F)(F)F)cc(C2(C#N)CC2)c1 (stereo not drawn) [P46, 3-(1-cyanocyclopropyl)-N-(cyclopropylmethyl)-N-[1-(2-pyrimidin-2-yl-1,2,4-triazol-3-yl)ethyl]-5-(trifluoromethyl)benzamide]
≥ 80%: percent effect (mortality or growth inhibition) at 200 ppm [1] | percent control (mortality, anti-feedant effect or growth inhibition) at 200 ppm [2] | percent effect (mortality or growth inhibition) at 200 ppm [3] | mortality at 500 ppm [10] | mortality at 24 ppm [5] | percent effect (mortality or growth inhibition) at 200 ppm [6] | mortality at 200 ppm [7] | mortality at 12 ppm [8] | mortality at 200 ppm [12] | mortality at 50 ppm [13]
